Each molecule was assayed against T1, human TLR9 (Homo sapiens, UniProt Q9NR96) (assay: HEK293-Blue-hTLR-9 cells assay). Conditions: HEK293-Blue-hTLR9 cells, SEAP reporter, ODN2006 stimulation, 20 hrs.
T1 sequence (Q9NR96 26-1032): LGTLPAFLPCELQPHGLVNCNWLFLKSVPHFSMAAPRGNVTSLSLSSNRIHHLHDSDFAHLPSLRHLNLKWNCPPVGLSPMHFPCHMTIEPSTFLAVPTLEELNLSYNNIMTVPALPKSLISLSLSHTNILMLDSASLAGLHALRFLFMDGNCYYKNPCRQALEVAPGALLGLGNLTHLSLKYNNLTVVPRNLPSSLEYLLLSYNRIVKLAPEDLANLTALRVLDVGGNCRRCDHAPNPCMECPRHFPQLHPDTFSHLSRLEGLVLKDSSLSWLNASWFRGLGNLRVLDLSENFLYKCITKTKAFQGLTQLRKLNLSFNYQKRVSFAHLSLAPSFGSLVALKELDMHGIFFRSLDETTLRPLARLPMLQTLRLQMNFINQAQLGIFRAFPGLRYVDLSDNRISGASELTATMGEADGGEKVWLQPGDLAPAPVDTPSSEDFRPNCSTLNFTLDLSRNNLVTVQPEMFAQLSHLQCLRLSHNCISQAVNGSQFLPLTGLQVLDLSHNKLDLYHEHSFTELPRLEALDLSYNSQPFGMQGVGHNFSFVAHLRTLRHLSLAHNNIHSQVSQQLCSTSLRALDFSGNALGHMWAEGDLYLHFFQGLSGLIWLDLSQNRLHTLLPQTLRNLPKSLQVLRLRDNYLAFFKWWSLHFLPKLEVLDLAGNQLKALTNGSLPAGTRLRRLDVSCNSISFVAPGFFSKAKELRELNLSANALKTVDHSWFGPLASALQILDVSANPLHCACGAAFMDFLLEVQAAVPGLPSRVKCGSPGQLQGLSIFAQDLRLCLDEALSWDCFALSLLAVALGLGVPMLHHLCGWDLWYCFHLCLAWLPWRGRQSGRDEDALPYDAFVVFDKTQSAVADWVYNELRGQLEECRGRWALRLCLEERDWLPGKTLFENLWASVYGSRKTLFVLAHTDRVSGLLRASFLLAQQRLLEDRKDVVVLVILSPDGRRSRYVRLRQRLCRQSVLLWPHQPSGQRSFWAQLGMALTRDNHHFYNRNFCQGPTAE
Assay type: cell-based
From the text: HEK293-Blue-hTLR-9 Cells Assay:
A stable HEK293-Blue-hTLR-9 cell line was purchased from InvivoGen (Cat. #: hkb-htlh9, San Diego, Calif., USA). These cells were originally designed for studying the stimulation of human TLR9 by monitoring the activation of NF-κB. A SEAP (secreted embryonic alkaline phosphatase) reporter gene was placed under the control of the IFN-β minimal promoter fused to five NF-κB and AP-1-binding sites. The SEAP was induced by activating NF-κB and AP-1 via stimulating HEK-Blue hTLR9 cells with TLR9 ligands. Therefore the reporter expression was declined by TLR9 antagonist under the stimulation of a ligand, such as ODN2006 (Cat. #: tlrl-2006-1, Invivogen, San Diego, Calif., USA), for incubation of 20 hrs. The cell culture supernatant SEAP reporter activity was determined using QUANTI-Blue™ kit (Cat. #: rep-qb1, Invivogen, San Diego, Calif., USA) at a wavelength of 640 nm, a detection medium that turns purple or blue in the presence of alkaline phosphatase.
HEK293-Blue-hTLR9 cells were incubated at a density of 250,000-450,000 cells/mL in a volume of 170 μL in a 96-well plate in Dulbecco's Modified Eagle's medium (DMEM) containing 4.5 g/L glucose, 50 U/mL penicillin, […], […], 2 mM L-glutamine, 10% (v/v) heat-inactivated fetal bovine serum with addition of 20 sL test compound in a serial dilution in the presence of final DMSO at 1% and 10 sL of 20 uM ODN2006 in above DMEM, perform incubation under 37° C. in a CO2 incubator for 20 hrs. Then 20 sL of the supernatant from each well was incubated with 180 μL Quanti-blue substrate solution at 37° C. for 2 hrs and the absorbance was read at 620-655 nm using a spectrophotometer. The signalling pathway that TLR9 activation leads to downstream NF-x3B activation has been widely accepted, and therefore similar reporter assay was modified for evaluating TLR9 antagonist.

Row | SMILES | IC50 [µM]
1 | CN1CCC(NC(=O)[C@@H]2CN(c3ccc(C#N)c4ncccc34)C[C@H]2C2CC2)CC1 (relative stereo) [Example 14, Trans-1-(8-cyano-5-quinolyl)-4-cyclopropyl-N-(1-methyl-4-piperidyl)pyrrolidine-3-carboxamide] | 4.5
2 | CN1CCC(NC(=O)[C@@H]2CN(c3ccc(C#N)c4ncccc34)C[C@H]2C(F)(F)F)CC1 (relative stereo) [Example 17, Trans-1-(8-cyano-5-quinolyl)-N-(1-methyl-4-piperidyl)-4-(trifluoromethyl)pyrrolidine-3-carboxamide] | 1
3 | C[C@@H]1CN(c2ccc(C#N)c3ncccc23)C[C@H]1C(=O)NC1CCN(C)CC1 (relative stereo) [Example 28] | 6.4
4 | CC[C@@H]1CN(c2ccc(C#N)c3ncccc23)C[C@H]1C(=O)NC1CCN(C)CC1 (relative stereo) [Example 29, Trans-1-(8-cyano-5-quinolyl)-4-ethyl-N-(1-methyl-4-piperidyl)pyrrolidine-3-carboxamide] | 6.9
5 | C[C@@H]1CN(c2ccc(C#N)c3ncccc23)C[C@H]1C(=O)N1CCC2(CCNCC2)CC1 (relative stereo) [Example 32, Trans-5-[3-(3,9-diazaspiro[5.5]undecane-3-carbonyl)-4-methyl-pyrrolidin-1-yl]quinoline-8-carbonitrile] | 2.4
6 | CC(C)[C@@H]1CN(c2ccc(C#N)c3ncccc23)C[C@H]1C(=O)NC1CCN(C)CC1 (relative stereo) [Example 37, Trans-1-(8-cyano-5-quinolyl)-4-isopropyl-N-(1-methyl-4-piperidyl)pyrrolidine-3-carboxamide] | 5.2
7 | CN1CCC(NC(=O)[C@@H]2CN(c3ccc(C#N)c4ncccc34)C[C@H]2C(F)F)CC1 (relative stereo) [Example 40, Trans-1-(8-cyano-5-quinolyl)-4-(difluoromethyl)-N-(1-methyl-4-piperidyl)pyrrolidine-3-carboxamide] | 6.9
8 | N[C@@H]1CCC[C@H](NC(=O)C2CN(c3ccc(C(F)(F)F)c4nccnc34)CC23CC3)C1 (relative stereo) [Example 43, Cis-N-(3-aminocyclohexyl)-5-[8-(trifluoromethyl)quinoxalin-5-yl]-5-azaspiro[2.4]heptane-7-carboxamide] | 17.9
9 | CN1CCC(NC(=O)[C@@H]2CN(c3ccc(Cl)c4ncccc34)C[C@H]2C(F)(F)F)CC1 (relative stereo) [Example 46, Trans-1-(8-chloro-5-quinolyl)-N-(1-methyl-4-piperidyl)-4-(trifluoromethyl)pyrrolidine-3-carboxamide] | 15.6
10 | C[C@@H]1CN(c2ccc(C#N)c3ncccc23)C[C@H]1C(=O)N1CCC2(CCNC2)C1 (relative stereo) [Example 53, Trans-5-[3-(2,7-diazaspiro[4.4]nonane-2-carbonyl)-4-methyl-pyrrolidin-1-yl]quinoline-8-carbonitrile] | 2.6
11 | CN1CCC(NC(=O)C2CN(c3ccc(C#N)c4nccnc34)CC23CC3)CC1 (single isomer, unassigned) [Example 7A, 5-(8-Cyanoquinoxalin-5-yl)-N-(1-methyl-4-piperidyl)-5-azaspiro[2.4]heptane-7-carboxamide] | 3.2
12 | CN1CCC(NC(=O)C2CN(c3ccc(C#N)c4nccnc34)CC23CC3)CC1 (single isomer, unassigned) [Example 7B, 5-(8-Cyanoquinoxalin-5-yl)-N-(1-methyl-4-piperidyl)-5-azaspiro[2.4]heptane-7-carboxamide] | 3.3
13 | N#Cc1ccc(N2CC(C(=O)NC3CCCNCC3)C(C(F)(F)F)C2)c2cccnc12 (single isomer, unassigned) [Example 30A, N-(azepan-4-yl)-1-(8-cyano-5-quinolyl)-4-(trifluoromethyl)pyrrolidine-3-carboxamide] | 17.5
14 | N#Cc1ccc(N2CC(C(=O)NC3CCCNCC3)C(C(F)(F)F)C2)c2cccnc12 (single isomer, unassigned) [Example 30B, N-(azepan-4-yl)-1-(8-cyano-5-quinolyl)-4-(trifluoromethyl)pyrrolidine-3-carboxamide] | 16.2
15 | CN1CCC(NC(=O)C2CN(c3ccc(C#N)c4ncccc34)CC23CC3)CC1 (single isomer, unassigned) [Example 41A, 5-(8-Cyano-5-quinolyl)-N-(1-methyl-4-piperidyl)-5-azaspiro[2.4]heptane-7-carboxamide] | 4.5
16 | C[C@@H]1CN(c2ccc(C#N)c3ncccc23)C[C@H]1C(=O)NC1CCCNCC1 (single isomer, unassigned) [Example 52A, Trans-N-(azepan-4-yl)-1-(8-cyano-5-quinolyl)-4-methyl-pyrrolidine-3-carboxamide] | 12.3
17 | C[C@@H]1CN(c2ccc(C#N)c3ncccc23)C[C@H]1C(=O)NC1CCCNCC1 (single isomer, unassigned) [Example 52B, Trans-N-(azepan-4-yl)-1-(8-cyano-5-quinolyl)-4-methyl-pyrrolidine-3-carboxamide] | 11.6
18 | N#Cc1ccc(N2CC(C(=O)NC[C@H]3CNCCO3)C3(CC3)C2)c2nccnc12 (single isomer, unassigned) [Example 70A] | 6.9
19 | N#Cc1ccc(N2CC(C(=O)NC[C@H]3CNCCO3)C3(CC3)C2)c2nccnc12 (single isomer, unassigned) [Example 70B] | 2.8
20 | N#Cc1ccc(N2CC(C(=O)NC[C@@H]3CNCCO3)C3(CC3)C2)c2nccnc12 (single isomer, unassigned) [Example 71A] | 3.8
21 | N#Cc1ccc(N2CC(C(=O)NC[C@@H]3CNCCO3)C3(CC3)C2)c2nccnc12 (single isomer, unassigned) [Example 71B] | 1.9
22 | CN1CCC(NC(=O)[C@H]2CN(c3ccc(C#N)c4nccnc34)C[C@@H]2C(F)(F)F)CC1 [Example 1, (3R,4R)-1-(8-cyanoquinoxalin-5-yl)-N-(1-methyl-4-piperidyl)-4-(trifluoromethyl) pyrrolidine-3-carboxamide] | 5.2
23 | CN1CCC(NC(=O)[C@H]2CN(c3ccc(C(F)(F)F)c4nccnc34)C[C@@H]2C(F)(F)F)CC1 [Example 2, (3R,4R)—N-(1-methyl-4-piperidyl)-4-(trifluoromethyl)-1-[8-(trifluoromethyl)quinoxalin-5-yl]pyrrolidine-3-carboxamide] | 5.5
24 | C[C@H]1CN(c2ccc(C#N)c3nccnc23)C[C@@H]1C(=O)NC1CCN(C)CC1 [Example 3, (3R,4R)-1-(8-cyanoquinoxalin-5-yl)-4-methyl-N-(1-methyl-4-piperidyl)pyrrolidine-3-carboxamide] | 5.7
25 | CN1CCC(NC(=O)[C@H]2CN(c3ccc(C#N)c4ncccc34)C[C@@H]2C(F)(F)F)CC1 [Example 4, (3R,4R)-1-(8-cyano-5-quinolyl)-N-(1-methyl-4-piperidyl)-4-(trifluoromethyl)pyrrolidine-3-carboxamide] | 9.9
26 | C[C@H]1CN(c2ccc(C(F)(F)F)c3nccnc23)C[C@@H]1C(=O)NC1CCN(C)CC1 [Example 5, (3R,4R)-4-methyl-N-(1-methyl-4-piperidyl)-1-[8-(trifluoromethyl)quinoxalin-5-yl]pyrrolidine-3-carboxamide] | 10.4

From patent US20210323977A1, “PYRROLIDINYL AMIDE COMPOUNDS FOR THE TREATMENT OF AUTOIMMUNE DISEASE” (Hoffmann-La Roche Inc., priority 2018, published 2021)
